This note sets out measurements from patent US20030013761A1, “Use of fumaric acid derivatives for treating mitochondrial diseases” (priority 2000, published 2003).

SMILES strings stand for the structures. Counter-ions that a name gives are not always drawn.

T1 sequence (P31040 43-664): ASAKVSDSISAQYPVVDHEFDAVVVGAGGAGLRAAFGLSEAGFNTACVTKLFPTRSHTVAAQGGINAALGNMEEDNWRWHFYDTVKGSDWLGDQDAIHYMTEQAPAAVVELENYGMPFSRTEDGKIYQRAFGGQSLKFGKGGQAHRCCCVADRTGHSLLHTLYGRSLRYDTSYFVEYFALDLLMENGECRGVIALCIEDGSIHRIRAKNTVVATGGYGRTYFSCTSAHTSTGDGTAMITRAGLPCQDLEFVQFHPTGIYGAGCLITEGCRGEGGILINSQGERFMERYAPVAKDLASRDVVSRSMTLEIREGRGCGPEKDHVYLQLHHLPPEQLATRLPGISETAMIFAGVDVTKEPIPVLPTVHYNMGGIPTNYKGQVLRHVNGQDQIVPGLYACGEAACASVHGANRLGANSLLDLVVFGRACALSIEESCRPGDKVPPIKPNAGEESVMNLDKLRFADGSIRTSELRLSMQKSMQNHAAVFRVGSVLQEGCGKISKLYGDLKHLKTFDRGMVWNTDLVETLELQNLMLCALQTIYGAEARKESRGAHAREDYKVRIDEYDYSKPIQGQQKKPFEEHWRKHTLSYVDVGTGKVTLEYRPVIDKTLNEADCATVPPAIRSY
T1 sequence (P21912 29-280 partner): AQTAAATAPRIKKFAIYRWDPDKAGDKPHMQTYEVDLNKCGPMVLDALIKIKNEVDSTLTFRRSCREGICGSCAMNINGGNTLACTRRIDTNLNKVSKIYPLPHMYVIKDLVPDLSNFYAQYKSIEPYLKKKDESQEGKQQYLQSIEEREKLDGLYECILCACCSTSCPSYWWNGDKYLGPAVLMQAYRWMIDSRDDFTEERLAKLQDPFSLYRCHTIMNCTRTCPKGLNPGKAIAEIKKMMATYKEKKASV
T1 sequence (Q99643 30-169 partner): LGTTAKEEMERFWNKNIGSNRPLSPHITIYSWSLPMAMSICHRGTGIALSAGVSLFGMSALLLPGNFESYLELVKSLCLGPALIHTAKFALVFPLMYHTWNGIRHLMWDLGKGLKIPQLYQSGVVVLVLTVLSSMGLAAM
T1 sequence (O14521 57-159 partner): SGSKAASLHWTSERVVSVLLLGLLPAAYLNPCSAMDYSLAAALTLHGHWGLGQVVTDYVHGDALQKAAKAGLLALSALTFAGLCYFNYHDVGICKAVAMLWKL

The experiment addresses T1, succinate dehydrogenase (Homo sapiens, UniProt P31040).
T1 construct: Fibroblasts [0.75 m Val/I]; endogenous in cells
The experiment can be described thus: Stimulating influence of fumaric acid derivatives on the enzyme activity of succinate dehydrogenase in fibroblasts. The following applies: Fibroblasts [0.75 m Val/I]. It counts as cell-based. The text has this: Succinate dehydrogenase is part of the mitochondrial membrane and catalyses the […] of succinic acid to fumaric acid within the citrate cycle. Hydrogen is passed to the respiratory chain via the electron transfer flavoprotein. Thus, the activity of succinate dehydrogenase may influence the electron flow of the electron transport chain. The latter, in turn, is linked to the process of oxidative phosphorylation, the malfunction of which is considered a cause for mitochondrial diseases. Consequently, the activity of succinate dehydrogenase may also have an effect on oxidative phosphorylation.
For the molecule `CCOC(=O)/C=C/C(=O)[O-].[Mg+]` [Magnesium monoethyl fumarate], the “evaluation of the stimulating influence on the enzyme activity of succinate dehydrogenase (grade in words)” value (from here on “evaluation of the stimulating influence”) is reported as “weak”.

Consider `CCOC(=O)/C=C/C(=O)O` [Monoethyl fumarate], for which the “evaluation of the stimulating influence” value is “weak”.

In the case of `CCOC(=O)/C=C/C(=O)[O-].[Ca+]` [Calcium monoethyl fumarate], the “evaluation of the stimulating influence” value is given as “medium”.

Consider `CCOC(=O)/C=C/C(=O)[O-].[Zn+]` [Zinc monoethyl fumarate], for which the “evaluation of the stimulating influence” value was “strong” and the “stimulation of the enzyme activity of succinate dehydrogenase (percent in brackets)” value is recorded as 107%.

For the molecule `COC(=O)/C=C/C(=O)OC` [Dimethyl fumarate], the “evaluation of the stimulating influence” value is recorded as “strong” and the “stimulation of the enzyme activity of succinate dehydrogenase (percent in brackets)” value came to 838%.
